Data reported in PubChem BioAssay (NCI).
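Growth conditions: 96-well plates. Treatment: test compound, 48 hours, 5 concentrations. Analysis: linear interpolation between bracketing concentrations; unreached endpoints set to highest concentration. GI50 marks 50% less growth. TGI: total growth inhibition.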

Columns and labels:
Experiment in all cases: NCI-60 cell line screen, 48 h
KM12 colon = test system: KM12 colon
DU-145 prostate = test system: DU-145 prostate
OVCAR-5 ovarian = test system: OVCAR-5 ovarian
A549 NSCLC = test system: A549 NSCLC
SNB-75 CNS = test system: SNB-75 CNS
UACC-62 melanoma = test system: UACC-62 melanoma
SK-MEL-2 melanoma = test system: SK-MEL-2 melanoma
HCT-116 colon = test system: HCT-116 colon
SW-620 colon = test system: SW-620 colon
HS 578T breast = test system: HS 578T breast

| Structure (SMILES) | TGI (KM12 colon) [µM] | TGI (DU-145 prostate) [µM] | TGI (OVCAR-5 ovarian) [µM] | TGI (A549 NSCLC) [µM] | TGI (SNB-75 CNS) [µM] | TGI (UACC-62 melanoma) [µM] | TGI (SK-MEL-2 melanoma) [µM] | TGI (HCT-116 colon) [µM] | TGI (SW-620 colon) [µM] | TGI (HS 578T breast) [µM] | GI50 (KM12 colon) [µM] | GI50 (DU-145 prostate) [µM] | GI50 (OVCAR-5 ovarian) [µM] | GI50 (A549 NSCLC) [µM] | GI50 (SNB-75 CNS) [µM] | GI50 (UACC-62 melanoma) [µM] | GI50 (SK-MEL-2 melanoma) [µM] | GI50 (HCT-116 colon) [µM] | GI50 (SW-620 colon) [µM] | GI50 (HS 578T breast) [µM] |
| --- | --- | --- | --- | --- | --- | --- | --- | --- | --- | --- | --- | --- | --- | --- | --- | --- | --- | --- | --- | --- |
| Cc1cc(C(O)CNC(C)CCn2cnc3c2c(=O)n(C)c(=O)n3C)ccc1O (stereo not drawn) | > 100 | > 100 | > 100 | > 100 | > 100 | > 100 | > 100 | > 100 | > 100 | > 100 | – | – | – | – | – | – | – | – | – | – |
| Cc1ccc(S(=O)(=O)Nc2cc(Sc3ccccc3)c(O)c3ccccc23)cc1 | 18.9 | 13.6 | 21.3 | 28.5 | 25.5 | 6.72 | 16 | 11.5 | 16.2 | 10.8 | 6.01 | 3.83 | 7.11 | 12.3 | 12.9 | 2.41 | 3.73 | 3.13 | 3.91 | 3.27 |
| O=c1c(Sc2ncccn2)c(Sc2ncccn2)cnn1CCl | 29.1 | 9.23 | 21.1 | 35.5 | 34.6 | 19 | 5.88 | 3.89 | 17.9 | 37 | – | – | – | – | – | – | – | – | – | – |
| O=C(Nc1ccc(S(=O)(=O)Nc2ncccn2)cc1)c1c2ccccc2nc2ccccc12 | > 100 | > 100 | > 100 | > 100 | > 100 | > 100 | > 100 | > 100 | > 100 | – | – | – | – | – | – | – | – | – | – | – |
| CCCOP(=S)(N1CC1)N1CC1 | > 100 | – | > 100 | > 100 | > 100 | > 100 | > 100 | > 100 | > 100 | – | – | – | – | – | – | – | – | – | – | – |
| COc1ccc(/C=C(\Cl)c2ccc(OC)cc2)cc1 | > 100 | – | > 100 | > 100 | > 100 | 99.1 | – | > 100 | > 100 | – | – | – | – | – | – | – | – | – | – | – |
| Cc1ncc(CO)c(C=NCCCCCCN=Cc2c(CO)cnc(C)c2O)c1O | > 100 | > 100 | > 100 | > 100 | > 100 | > 100 | > 100 | > 100 | > 100 | > 100 | – | – | – | – | – | – | – | – | – | – |
| COC(=O)CCC(C)[C@H]1CCC2C3C(C[C@H](OC(C)=O)[C@@]21C)[C@@]1(C)CCC2(C[C@H]1C[C@H]3OC(C)=O)OOC1(CCCCC1)OO2 (stereo partly drawn) | > 100 | > 100 | > 100 | 70.7 | 79.3 | – | > 100 | > 100 | > 100 | 63.5 | – | – | – | – | – | – | – | – | – | – |
| Oc1ccc(Cn2c(-c3ccc(O)cc3)nc3ccccc32)cc1 | > 100 | > 100 | > 100 | > 100 | > 100 | > 100 | > 100 | > 100 | > 100 | > 100 | – | – | – | – | – | – | – | – | – | – |
| CC(=O)C1C(=O)C(=O)N(c2ccc(Br)cc2)C1=O (stereo not drawn) | > 100 | > 100 | > 100 | > 100 | > 100 | > 100 | > 100 | > 100 | > 100 | > 100 | – | – | – | – | – | – | – | – | – | – |
